{"source": "paper PMC8326471", "about": "“Synthesis and biological evaluation of new pyrazolebenzene-sulphonamides as potential anticancer agents and hCA I and II inhibitors” (Turkish Journal of Chemistry, 2021)", "key": {"[1]": {"test_system": "human oral squamous cell carcinoma cell lines (Ca9-22, HSC-2, HSC-3, HSC-4)", "assay": "Cytotoxicity assay, all tumor cell lines (mean, TS1, PSE1)", "type": "cell-based", "settings": "mean of Ca9-22, HSC-2, HSC-3, HSC-4, read-out: Tumor cell lines CC50 mean (B)", "description": "(§1) The cytotoxicity of the compounds 4a - 4j were assayed towards human tumor cell lines [gingival carcinoma (Ca9–22), oral squamous cell carcinoma (HSC-2)] and human normal oral cells [gingival fibroblasts (HGF), and periodontal ligament fibroblasts (HPLF)] as described [42, 54 – 56]. In brief, all cells were cultured in Dulbecco’s modified eagle’s medium (DMEM) supplemented with 10% fetal bovine serum (FBS). The following concentrations of the compounds in dimethylsulfoxide (DMSO) were added to the medium and incubated at 37 ° C for 48 h: 4a - 4j ([…]), melphalan (3.12, 6.25, 12.5, 25. 50, 100, 200 and […]) and 5-FU ([…]). The media that contained the same concentration of DMSO ([…], 0.03125, 0.0625, 0.125, 0.25, 0.5 or 1%) were used as controls since DMSO above 0.25% is cytotoxic. The viable cell numbers were determined by the 3-(4,5-dimethylthiazol-2-yl)-2,5-diphenyltetrazolium bromide (MTT) assay. The CC50 values were determined from dose-response curves.\n(§2) Cytotoxicity’s of the compounds 4a - 4j were evaluated towards Ca9–22, HSC-2, HSC-3, and HSC-4 human oral squamous cell carcinoma cell lines as tumor cell lines and HGF, HPLF, and HPC human normal oral cells as nontumor cells (Table 1) according to the procedure in the literature [42, 54 – 56]. 5-Fluorouracil (5-FU) was used as a reference anticancer drug.\nThe tumor selectivity (TS1 and TS2) of each compound was calculated as described in previously reported literature procedures and these figures are presented in Table 1. Based on the TS1 values, 4f and 4g which have 2,5 and 2,4-dimethoxy substituents had the highest TS1 values in a series with 22.4 and 22.2, respectively. On the other hand, the 3,4,5-trimethoxy substituted compound 4i (TS1: 19.6) had the […] TS1 value. […] As expected, they were in accordance with the literature findings [16 – 18]. The second calculation (TS2) considered the differences of sensitivity between the malignant (Ca9–22) and non-malignant (HGF) cells derived from the same tissue (gingiva). According to TS2 values obtained, 4i (3,4,5-trimethoxy) had the highest TS2 value of 43.\nThe desired properties for a lead compound are being both markedly cytotoxic and selectively toxic for tumors. PSE1 reflects general cytotoxicity and selectivity potency of the compound towards all cells used, whereas PSE2 seems more specified since it was considered for the same origin cells. When the compounds tested towards OSCC lines were considered in terms of PSE2 values of the compounds. The best poly-methoxylated compounds were 4i (with 3,4,5-trimethoxy, PSE2 = 461.5) ˃ 4f (with 2,5-dimethoxy, PSE2 = 425.1) ˃ 4g (with 2,4-dimethoxy, PSE2 = 405.4) while the best mono-methoxylated derivative was 4b (with 4-methoxy, PSE2 = 205)."}, "[2]": {"assay": "Cytotoxicity assay (MTT), HPC normal cells", "type": "cell-based", "settings": "human, HPC normal oral cells, non-tumor cells", "description": "as §1, §2"}, "[3]": {"test_system": "oral squamous cell carcinoma (HSC-2) cells", "assay": "Cytotoxicity assay (MTT), HSC-2", "type": "cell-based, human", "description": "as §1, §2"}, "[4]": {"assay": "Cytotoxicity assay (MTT), HPLF normal cells", "type": "cell-based", "settings": "human, HPLF periodontal ligament fibroblasts (normal oral cells), non-tumor cells", "description": "as §1, §2"}, "[5]": {"assay": "Cytotoxicity assay, all non-tumor cells (mean)", "type": "cell-based", "settings": "human, normal oral cells HGF, HPLF and HPC (mean of the three), read-out: Non-tumor cell lines CC50 mean (D)", "description": "as §1, §2"}, "hCA II": {"target": "hCA II (Homo sapiens, UniProt P00918)", "assay": "Carbonic anhydrase enzyme assay (esterase activity), hCA II", "type": "biochemical", "text": "(§3) Human CA isoforms (hCAI and hCAII) were purified by the sepharose - 4B – L - tyrosine sulfanilamide affinity segregation method as reported. […] Inhibitory effects of the compounds were investigated by measuring the esterase activity according to Verpoorte et al. as described in previous studies [61 – 63].\n(§4) Vmax, maximal velocity; VImax, maximal velocity of inhibitor; I, inhibitor; Ki, the inhibitor constant."}, "[6]": {"test_system": "HSC-4 oral squamous cell carcinoma cells", "assay": "Cytotoxicity assay (MTT), HSC-4", "type": "cell-based", "settings": "Homo sapiens, tumor cell line, 48 h", "description": "as §1, §2"}, "[7]": {"test_system": "HSC-3 oral squamous cell carcinoma cells", "assay": "Cytotoxicity assay (MTT), HSC-3", "type": "cell-based", "settings": "Homo sapiens, tumor cell line, 48 h", "description": "as §1, §2"}, "hCA I": {"target": "hCA I (Homo sapiens, UniProt P00915)", "sequence (P00915 whole entry)": "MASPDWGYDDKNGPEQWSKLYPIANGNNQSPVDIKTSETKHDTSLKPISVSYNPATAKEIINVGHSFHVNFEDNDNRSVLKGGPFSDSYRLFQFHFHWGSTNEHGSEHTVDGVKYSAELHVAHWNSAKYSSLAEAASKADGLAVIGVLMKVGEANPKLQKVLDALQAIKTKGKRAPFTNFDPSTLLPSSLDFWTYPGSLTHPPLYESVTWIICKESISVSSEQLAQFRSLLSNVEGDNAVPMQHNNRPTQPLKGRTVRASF", "assay": "Carbonic anhydrase enzyme assay (esterase activity), hCA I", "type": "biochemical", "text": "as §3, §4"}, "[8]": {"assay": "Cytotoxicity assay (MTT), HGF normal cells", "type": "cell-based", "settings": "human, HGF gingival fibroblasts (normal oral cells), non-tumor cells", "description": "as §1, §2"}, "[9]": {"test_system": "gingival carcinoma (Ca9-22) cells", "assay": "Cytotoxicity assay (MTT), Ca9-22", "type": "cell-based, human", "description": "as §1, §2"}, "[10]": {"settings": "esterase activity, p-nitrophenyl acetate"}}, "data": [{"smiles": "COc1ccc(C2=NN(c3ccc(S(N)(=O)=O)cc3)C(c3ccc4c(c3)OCO4)C2)c(OC)c1", "note": "(centres unmarked) [4g, 4-[5-(1,3-Benzodioxol-5-yl)-3-(2,4-dimethoxyphenyl)-4,5-dihydro-1H-pyrazol-1-yl]benzenesulphonamide]", "values": [{"measurement": "CC50", "setting": "[1]", "value": 11.5, "unit": "µM"}, {"measurement": "CC50 at 48 h", "setting": "[2]", "value": 131, "unit": "µM"}, {"measurement": "CC50", "setting": "[3]; Homo sapiens, HSC-2, tumor cell line, 48 h, MTT", "value": 13.5, "unit": "µM"}, {"measurement": "times of potency compared to 5-FU, HSC-2", "setting": "[3]; cytotoxicity relative to 5-FU", "value": 19.3}, {"measurement": "CC50 at 48 h", "setting": "[4]", "value": 234, "unit": "µM"}, {"measurement": "CC50 at 48 h", "setting": "[5]", "value": 255, "unit": "µM"}, {"measurement": "Ki", "setting": "hCA II; Lineweaver-Burk plot", "value": "7.8 ± 2.2", "unit": "µM"}, {"measurement": "IC50", "setting": "hCA II; [10]", "value": 11.3, "unit": "µM"}, {"measurement": "CC50", "setting": "[6]", "value": 12.7, "unit": "µM"}, {"measurement": "CC50", "setting": "[7]", "value": 9.8, "unit": "µM"}, {"measurement": "Ki", "setting": "hCA I; Lineweaver-Burk plot", "value": "12.7 ± 1.7", "unit": "µM"}, {"measurement": "IC50", "setting": "hCA I; [10]", "value": 6.7, "unit": "µM"}, {"measurement": "CC50 at 48 h", "setting": "[8]", "value": 400, "unit": "µM"}, {"measurement": "CC50", "setting": "[9]; Homo sapiens, Ca9-22, tumor cell line, 48 h, MTT", "value": 9.9, "unit": "µM"}, {"measurement": "PSE2 times more potent than 5-FU", "setting": "[9]; PSE2 relative to reference drug 5-FU", "value": 2.0}, {"measurement": "times of potency compared to 5-FU, Ca9-22", "setting": "[9]; cytotoxicity relative to 5-FU", "value": 2.2}, {"measurement": "melting point", "value": "134 to 136", "unit": "°C"}]}]}
